These results are taken from patent publication US9255094B2, “Pyrido[4,3-B]indoles and methods of use” (Medivation Technologies, Inc., priority 2009, dated 2016).

SMILES strings stand for the structures.

In one assay the target is T1, human recombinant serotonin (5-Hydroxytryptamine) 5-HT2A receptor (Homo sapiens, UniProt P28223).
T1 construct: expressed in transfected cells; host or cells: Chinese hamster ovary (CHO-K1) cells
T1 sequence (P28223 whole entry): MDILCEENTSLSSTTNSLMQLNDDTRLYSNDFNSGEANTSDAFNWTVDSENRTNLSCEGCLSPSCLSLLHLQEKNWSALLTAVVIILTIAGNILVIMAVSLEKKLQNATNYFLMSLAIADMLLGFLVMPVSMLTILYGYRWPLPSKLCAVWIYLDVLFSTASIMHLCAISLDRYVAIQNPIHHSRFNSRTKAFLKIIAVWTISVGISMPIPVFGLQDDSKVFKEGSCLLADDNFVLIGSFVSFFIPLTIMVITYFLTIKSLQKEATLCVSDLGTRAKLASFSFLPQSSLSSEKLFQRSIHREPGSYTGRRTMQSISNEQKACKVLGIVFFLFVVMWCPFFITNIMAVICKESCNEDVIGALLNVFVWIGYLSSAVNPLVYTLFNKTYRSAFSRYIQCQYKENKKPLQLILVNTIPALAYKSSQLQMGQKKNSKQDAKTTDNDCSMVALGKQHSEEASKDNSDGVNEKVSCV
As to the kind of experiment: Serotonin 5-HT2A radioligand binding assay ([3H]Ketanserin). As to conditions: compound at 0.1 μM; 0.5 nM [3H]Ketanserin; CHO-K1 cells; read-out: Percent Inhibition of ligand binding, Serotonin (0.1 μM) 5-HT2A. The method, then: Compounds of the invention were incubated with 0.5 nM [^3H]Ketanserin for 60 min at 25° C. Non-specific binding was estimated in the presence of 1 μM Mianserin. Receptor proteins were filtered and washed, the filters were then counted to determine [^3H]Ketanserin specifically bound. Compounds were screened at 1 μM or lower, using 1% DMSO as vehicle. Biochemical assay results are presented as the percent inhibition of specific binding in Table 4.
Broadly, the inhibition is the drop in the measured response relative to a control, in per cent. With `CC(C)C(O)(Cn1c2c(c3cc(Cl)ccc31)CN(C)CC2)c1ccncc1` (stereo not drawn) [Compound 1-21, 1-(8-chloro-2-methyl-3,4-dihydro-1H-pyrido[4,3-b]indol-5(2H)-yl)-3-methyl-2-(pyridin-4-yl)butan-2-ol], the inhibition at 0.1 µM is 68%.

Consider `CN1CCc2c(c3cc(Cl)ccc3n2CC(C)(O)c2cnccn2)C1` (stereo not drawn) [Compound 1-27, 1-(8-chloro-2-methyl-3,4-dihydro-1H-pyrido[4,3-b]indol-5(2H)-yl)-2-(pyrazin-2-yl)propan-2-ol], for which the inhibition at 0.1 µM was 40%.

Take `Cc1ccc2c(c1)c1c(n2CC(C)(O)c2ccncn2)CCN(C)C1` (stereo not drawn) [Compound 1-25, 1-(2,8-dimethyl-3,4-dihydro-1H-pyrido[4,3-b]indol-5(2H)-yl)-2-(pyrimidin-4-yl)propan-2-ol]: the inhibition at 0.1 µM was determined as 17%.

`CCC(O)(Cn1c2c(c3cc(Cl)ccc31)CN(C)CC2)c1ccncc1` (stereo not drawn) [Compound 1-23, 1-(8-chloro-2-methyl-3,4-dihydro-1H-pyrido[4,3-b]indol-5(2H)-yl)-2-(pyridin-4-yl)butan-2-ol]: the inhibition at 0.1 µM was determined as 62%.

The same assay, now with this note: compound at 1 μM; 0.5 nM [3H]Ketanserin; CHO-K1 cells; read-out: Percent Inhibition of ligand binding, Serotonin (1 μM) 5-HT2A.
As to `CN1CCc2c(c3cccc(F)c3n2CC(C)(O)c2ccncc2)C1` (stereo not drawn) [Compound 1-13, 1-(6-fluoro-2-methyl-3,4-dihydro-1H-pyrido[4,3-b]indol-5(2H)-yl)-2-(pyridin-4-yl)propan-2-ol], the inhibition at 1 µM stood at 82%.

For the compound `CN1CCc2c(c3cc(Cl)ccc3n2CC(C)(O)c2cccnc2)C1` (stereo not drawn) [Compound 1-54, 1-(8-chloro-1,2,3,4-tetrahydro-2-methylpyrido[4,3-b]indol-5-yl)-2-(pyridin-3-yl)propan-2-ol], the inhibition at 1 µM is 77%.

With `CN1CCc2c(c3cc(F)ccc3n2CC(C)(O)c2ccncc2)C1` (stereo not drawn) [Compound 1-9, 1-(8-fluoro-2-methyl-3,4-dihydro-1H-pyrido[4,3-b]indol-5(2H)-yl)-2-(pyridin-4-yl)propan-2-ol], the inhibition at 1 µM was determined as 77%.

Regarding `Cc1ccc2c(c1)c1c(n2CC(O)c2ccc(F)cc2)CCN(C)C1` (stereo not drawn) [Compound 1-2, 2-(2,8-dimethyl-3,4-dihydro-1H-pyrido[4,3-b]indol-5(2H)-yl)-1-(4-fluorophenyl)ethanol], the inhibition at 1 µM is 91%.

In the case of `CN1CCc2c(c3ccccc3n2CC(C)(O)c2ccncc2)C1` (stereo not drawn) [Compound 1-14, 1-(2-methyl-3,4-dihydro-1H-pyrido[4,3-b]indol-5(2H)-yl)-2-(pyridin-4-yl)propan-2-ol], the inhibition at 1 µM stood at 74%.

In the case of `CN1CCc2c(c3cc(Cl)ccc3n2CC(O)(c2ccc(F)cc2)C2CCC2)C1` (stereo not drawn) [Compound 1-6, 2-(8-chloro-2-methyl-3,4-dihydro-1H-pyrido[4,3-b]indol-5(2H)-yl)-1-cyclobutyl-1-(4-fluorophenyl)ethanol], the inhibition at 1 µM came out at 97%.

In the case of `CN1CCc2c(c3ccc(Cl)cc3n2CC(C)(O)c2ccncc2)C1` (stereo not drawn) [Compound 1-12, 1-(7-chloro-2-methyl-3,4-dihydro-1H-pyrido[4,3-b]indol-5(2H)-yl)-2-(pyridin-4-yl)propan-2-ol], the inhibition at 1 µM is 82%.

Regarding `Cc1ccc2c(c1)c1c(n2CC(C)(O)c2ccncc2)CCN(C)C1` (stereo not drawn) [Compound 1-52, 1-(1,2,3,4-tetrahydro-2,8-dimethylpyrido[4,3-b]indol-5-yl)-2-(pyridin-4-yl)propan-2-ol], the inhibition at 1 µM came out at 88%.

Take `CN1CCc2c(c3c(Cl)c(Cl)ccc3n2CC(C)(O)c2ccncc2)C1` (stereo not drawn) [Compound 1-18, 1-(8,9-dichloro-2-methyl-3,4-dihydro-1H-pyrido[4,3-b]indol-5(2H)-yl)-2-(pyridin-4-yl)propan-2-ol]: the inhibition at 1 µM is 71%.

`CCC(O)(Cn1c2c(c3cc(C)ccc31)CN(C)CC2)c1ccc(F)cc1` (stereo not drawn) [Compound 1-5, 1-(2,8-dimethyl-3,4-dihydro-1H-pyrido[4,3-b]indol-5(2H)-yl)-2-(4-fluorophenyl)butan-2-ol]: the inhibition at 1 µM turned out to be 102%.

For the compound `COc1ccc2c(c1)c1c(n2CC(C)(O)c2ccncc2)CCN(C)C1` (stereo not drawn) [Compound 1-16, 1-(8-methoxy-2-methyl-3,4-dihydro-1H-pyrido[4,3-b]indol-5(2H)-yl)-2-(pyridin-4-yl)propan-2-ol], the inhibition at 1 µM is 50%.
